Active and inactive are the calls of the source. No cut-off for these calls is given here.
How the values were obtained:
Caenorhabditis elegans [1] = experiment: Toxicity in L1 stage Caenorhabditis elegans N2 assessed as viability and reproduction at 50 uM; type: organism-based; details: in vivo
Caenorhabditis elegans [2] = experiment: Toxicity in L1 stage Caenorhabditis elegans N2 assessed as viability and reproduction at 10 uM; type: organism-based; details: in vivo
Caenorhabditis elegans [3] = experiment: In vivo inhibition of BK channel in L1 stage Caenorhabditis elegans N2 assessed as increase in reversals at 1 uM; type: organism-based
MDA-MB-231 [4] = experiment: Antimigratory activity in human MDA-MB-231 cells after 24 hrs by wound healing assay; type: functional, cell-based; details: MDA-MB-231, 24 h
MDA-MB-231 [5] = experiment: Antiproliferative activity against human MDA-MB-231 cells after 72 hrs by MTT assay; type: functional, cell-based; details: MDA-MB-231, 72 h
MCF7 = experiment: Antiproliferative activity against human MCF7 cells after 72 hrs by MTT assay; type: functional, cell-based; details: MCF7, 72 h
MDA-MB-231 [6] = experiment: Antiinvasive activity against human MDA-MB-231 cells assessed as inhibition of cell invasion at 15 uM after 24 hrs by BME Cell invasion assay kit; type: functional
MDA-MB-468 = experiment: Cytotoxicity against human MDA-MB-468 cells assessed as growth inhibition at 10 uM; type: functional; details: read-out: GI
T47D = experiment: Cytotoxicity against human T47D cells assessed as growth inhibition at 10 uM; type: functional; details: read-out: GI
BT-549 = experiment: Cytotoxicity against human BT549 cells assessed as growth inhibition at 10 uM; type: functional; details: read-out: GI
[7] = Cytotoxicity against human Hs578T cells assessed as growth inhibition at 10 uM; type: functional; details: Hs-578T, read-out: GI
MDA-MB-231 [8] = experiment: Cytotoxicity against human MDA-MB-231 cells assessed as growth inhibition at 10 uM; type: functional; details: read-out: GI
DU-145 = experiment: Cytotoxicity against human DU145 cells assessed as growth inhibition at 10 uM; type: functional; details: read-out: GI
PC-3 = experiment: Cytotoxicity against human PC3 cells assessed as growth inhibition at 10 uM; type: functional; details: read-out: GI
[9] = Cytotoxicity against human UO31 cells assessed as growth inhibition at 10 uM; type: functional; details: UO-31, read-out: GI
TK-10 = experiment: Cytotoxicity against human TK10 cells assessed as growth inhibition at 10 uM; type: functional; details: read-out: GI
SN12C = experiment: Cytotoxicity against human SN12C cells assessed as growth inhibition at 10 uM; type: functional; details: read-out: GI
RXF 393 = experiment: Cytotoxicity against human RXF393 cells assessed as growth inhibition at 10 uM; type: functional; details: read-out: GI
ACHN = experiment: Cytotoxicity against human ACHN cells assessed as growth inhibition at 10 uM; type: functional; details: read-out: GI
786-0 = experiment: Cytotoxicity against human 786-0 cells assessed as growth inhibition at 10 uM; type: functional; details: read-out: GI
SK-OV-3 = experiment: Cytotoxicity against human SKOV3 cells assessed as growth inhibition at 10 uM; type: functional; details: read-out: GI
[10] = Cytotoxicity against human NCI-ADR-RES cells assessed as growth inhibition at 10 uM; type: functional; details: read-out: GI
[11] = Cytotoxicity against human OVCAR8 cells assessed as growth inhibition at 10 uM; type: functional; details: OVCAR-8, read-out: GI
[12] = Cytotoxicity against human OVCAR5 cells assessed as growth inhibition at 10 uM; type: functional; details: OVCAR-5, read-out: GI
[13] = Cytotoxicity against human OVCAR4 cells assessed as growth inhibition at 10 uM; type: functional; details: OVCAR-4, read-out: GI
[14] = Cytotoxicity against human OVCAR3 cells assessed as growth inhibition at 10 uM; type: functional; details: OVCAR-3, read-out: GI
IGROV-1 = experiment: Cytotoxicity against human IGROV1 cells assessed as growth inhibition at 10 uM; type: functional; details: read-out: GI
[15] = Cytotoxicity against human UACC62 cells assessed as growth inhibition at 10 uM; type: functional; details: UACC-62, read-out: GI
[16] = Cytotoxicity against human UACC257 cells assessed as growth inhibition at 10 uM; type: functional; details: UACC-257, read-out: GI
SK-MEL-5 = experiment: Cytotoxicity against human SK-MEL-5 cells assessed as growth inhibition at 10 uM; type: functional; details: read-out: GI
SK-MEL-2 = experiment: Cytotoxicity against human SK-MEL-2 cells assessed as growth inhibition at 10 uM; type: functional; details: read-out: GI
SK-MEL-28 = experiment: Cytotoxicity against human SK-MEL-28 cells assessed as growth inhibition at 10 uM; type: functional; details: read-out: GI
MDA-MB-435 = experiment: Cytotoxicity against human MDA-MB-435 cells assessed as growth inhibition at 10 uM; type: functional; details: read-out: GI
Malme-3M = experiment: Cytotoxicity against human MALME-3M cells assessed as growth inhibition at 10 uM; type: functional; details: read-out: GI
M14 = experiment: Cytotoxicity against human M14 cells assessed as growth inhibition at 10 uM; type: functional; details: read-out: GI
LOX IMVI = experiment: Cytotoxicity against human LOXIMVI cells assessed as growth inhibition at 10 uM; type: functional; details: read-out: GI
U-251 = experiment: Cytotoxicity against human U251 cells assessed as growth inhibition at 10 uM; type: functional; details: read-out: GI
SNB-75 = experiment: Cytotoxicity against human SNB75 cells assessed as growth inhibition at 10 uM; type: functional; details: read-out: GI
SNB-19 = experiment: Cytotoxicity against human SNB19 cells assessed as growth inhibition at 10 uM; type: functional; details: read-out: GI
SF-539 = experiment: Cytotoxicity against human SF539 cells assessed as growth inhibition at 10 uM; type: functional; details: read-out: GI
SF-268 = experiment: Cytotoxicity against human SF268 cells assessed as growth inhibition at 10 uM; type: functional; details: read-out: GI
SW-620 = experiment: Cytotoxicity against human SW620 cells assessed as growth inhibition at 10 uM; type: functional; details: read-out: GI
KM12 = experiment: Cytotoxicity against human KM12 cells assessed as growth inhibition at 10 uM; type: functional; details: read-out: GI
HT-29 = experiment: Cytotoxicity against human HT-29 cells assessed as growth inhibition at 10 uM; type: functional; details: read-out: GI
[17] = Cytotoxicity against human HCT15 cells assessed as growth inhibition at 10 uM; type: functional; details: HCT-15, read-out: GI
HCT-116 = experiment: Cytotoxicity against human HCT116 cells assessed as growth inhibition at 10 uM; type: functional; details: read-out: GI
HCC 2998 = experiment: Cytotoxicity against human HCC2998 cells assessed as growth inhibition at 10 uM; type: functional; details: read-out: GI
COLO 205 = experiment: Cytotoxicity against human COLO205 cells assessed as growth inhibition at 10 uM; type: functional; details: read-out: GI
NCI-H522 = experiment: Cytotoxicity against human NCI-H522 cells assessed as growth inhibition at 10 uM; type: functional; details: read-out: GI
NCI-H460 = experiment: Cytotoxicity against human NCI-H460 cells assessed as growth inhibition at 10 uM; type: functional; details: read-out: GI
NCI-H322M = experiment: Cytotoxicity against human NCI-H322M cells assessed as growth inhibition at 10 uM; type: functional; details: read-out: GI
NCI-H23 = experiment: Cytotoxicity against human NCI-H23 cells assessed as growth inhibition at 10 uM; type: functional; details: read-out: GI
NCI-H226 = experiment: Cytotoxicity against human NCI-H226 cells assessed as growth inhibition at 10 uM; type: functional; details: read-out: GI
HOP-62 = experiment: Cytotoxicity against human HOP62 cells assessed as growth inhibition at 10 uM; type: functional; details: read-out: GI
A549 = experiment: Cytotoxicity against human A549 cells assessed as growth inhibition at 10 uM; type: functional; details: read-out: GI
[18] = Cytotoxicity against human EKVX cells assessed as growth inhibition at 10 uM; type: functional; details: read-out: GI
SR = experiment: Cytotoxicity against human SR cells assessed as growth inhibition at 10 uM; type: functional; details: read-out: GI
MOLT-4 = experiment: Cytotoxicity against human MOLT4 cells assessed as growth inhibition at 10 uM; type: functional; details: read-out: GI
RPMI-8226 = experiment: Cytotoxicity against human RPMI8226 cells assessed as growth inhibition at 10 uM; type: functional; details: read-out: GI
K562 = experiment: Cytotoxicity against human K562 cells assessed as growth inhibition at 10 uM; type: functional; details: read-out: GI
CCRF-CEM = experiment: Cytotoxicity against human CCRF-CEM cells assessed as growth inhibition at 10 uM; type: functional; details: read-out: GI
HL-60(TB) = experiment: Cytotoxicity against human HL-60(TB) cells assessed as growth inhibition at 10 uM; type: functional; details: read-out: GI

CC(C)=CCC[C@]1(C)[C@@H](O)CC[C@@]2(C)[C@H]1CC[C@H]1Cc3c([nH]c4ccccc34)[C@@]12C [EMINDOLE SB]
Activity (Caenorhabditis elegans [1]): Non-toxic
Activity (Caenorhabditis elegans [2]): Non-toxic
Activity (Caenorhabditis elegans [3]): Non-toxic
IC50 (MDA-MB-231 [4]): 19 µM
IC50 (MDA-MB-231 [5]): 21.3 µM
IC50 (MCF7): 10.1 µM

C=C(C)[C@H]1O[C@H]2CC[C@@]3(C)[C@@](O)(CC[C@H]4[C@@H]5OC(C)(C)[C@H]6C[C@@H]7C(=C)Cc8c(Cl)cc9[nH]c(c5c9c8[C@@]76O)[C@@]43C)[C@]23O[C@@H]3[C@H]1O [PENITREM A]
Activity (Caenorhabditis elegans [1]): Non-toxic
Activity (Caenorhabditis elegans [2]): Non-toxic
Activity (Caenorhabditis elegans [3]): Toxic

C=C1Cc2c(Cl)cc3[nH]c4c5c3c2[C@H]2[C@@H]1C[C@@H]2C(C)(C)O[C@H]5[C@@H]1CC[C@@]2(O)[C@@]35O[C@@H]3[C@@H](O)[C@@H](C(=C)C)O[C@H]5CC[C@]2(C)[C@@]41C [PENITREM F]
Activity (Caenorhabditis elegans [1]): Non-toxic
Activity (Caenorhabditis elegans [2]): Non-toxic
inhibition (MDA-MB-231 [6]): inactive
IC50 (MDA-MB-231 [4]): 35 µM
IC50 (MDA-MB-231 [5]): 13.8 µM
IC50 (MCF7): 15 µM

C=C1Cc2ccc3[nH]c4c5c3c2[C@H]2[C@@H]1C[C@@H]2C(C)(C)O[C@H]5[C@@H]1CC[C@@]2(O)[C@@]35O[C@@H]3[C@@H](O)[C@@H](C(=C)C)O[C@H]5CC[C@]2(C)[C@@]41C [PENITREM B]
inhibition of growth at 10 µM (MDA-MB-468): 60.7%
inhibition of growth at 10 µM (T47D): 64.5%
inhibition of growth at 10 µM (BT-549): 63.7%
inhibition of growth at 10 µM [7]: 42.4%
inhibition of growth at 10 µM (MDA-MB-231 [8]): 77.8%
inhibition of growth at 10 µM (DU-145): 64.4%
inhibition of growth at 10 µM (PC-3): 27.8%
inhibition of growth at 10 µM [9]: 11.5%
inhibition of growth at 10 µM (TK-10): 84%
inhibition of growth at 10 µM (SN12C): 38.6%
inhibition of growth at 10 µM (RXF 393): 70.3%
inhibition of growth at 10 µM (ACHN): 59.3%
inhibition of growth at 10 µM (786-0): 70.3%
inhibition of growth at 10 µM (SK-OV-3): 90.3%
inhibition of growth at 10 µM [10]: 56.7%
inhibition of growth at 10 µM [11]: 71.4%
inhibition of growth at 10 µM [12]: 102%
inhibition of growth at 10 µM [13]: 66.3%
inhibition of growth at 10 µM [14]: 48.8%
inhibition of growth at 10 µM (IGROV-1): 54.9%
inhibition of growth at 10 µM [15]: 76.8%
inhibition of growth at 10 µM [16]: 44.7%
inhibition of growth at 10 µM (SK-MEL-5): 61.1%
inhibition of growth at 10 µM (SK-MEL-2): 87.8%
inhibition of growth at 10 µM (SK-MEL-28): 94.1%
inhibition of growth at 10 µM (MDA-MB-435): 33.9%
inhibition of growth at 10 µM (Malme-3M): 67.4%
inhibition of growth at 10 µM (M14): 34.5%
inhibition of growth at 10 µM (LOX IMVI): 39.5%
inhibition of growth at 10 µM (U-251): 66.3%
inhibition of growth at 10 µM (SNB-75): 68.2%
inhibition of growth at 10 µM (SNB-19): 71.8%
inhibition of growth at 10 µM (SF-539): 89.8%
inhibition of growth at 10 µM (SF-268): 49.2%
inhibition of growth at 10 µM (SW-620): 64.1%
inhibition of growth at 10 µM (KM12): 40.9%
inhibition of growth at 10 µM (HT-29): 38.4%
inhibition of growth at 10 µM [17]: 74.3%
inhibition of growth at 10 µM (HCT-116): 25.3%
inhibition of growth at 10 µM (HCC 2998): 107%
inhibition of growth at 10 µM (COLO 205): 76.5%
inhibition of growth at 10 µM (NCI-H522): 78.5%
inhibition of growth at 10 µM (NCI-H460): 50.6%
inhibition of growth at 10 µM (NCI-H322M): 48.2%
inhibition of growth at 10 µM (NCI-H23): 73.2%
inhibition of growth at 10 µM (NCI-H226): 82.3%
inhibition of growth at 10 µM (HOP-62): 94%
inhibition of growth at 10 µM (A549): 43.1%
inhibition of growth at 10 µM [18]: 63%
inhibition of growth at 10 µM (SR): 45.9%
inhibition of growth at 10 µM (MOLT-4): 36.4%
inhibition of growth at 10 µM (RPMI-8226): 20.4%
inhibition of growth at 10 µM (K562): 19.9%
inhibition of growth at 10 µM (CCRF-CEM): 21.3%
inhibition of growth at 10 µM (HL-60(TB)): 29%
Activity (Caenorhabditis elegans [1]): Non-toxic
Activity (Caenorhabditis elegans [2]): Non-toxic
inhibition at 15 µM (MDA-MB-231 [6]; MDA-MB-231, 24 h): 40%
IC50 (MDA-MB-231 [4]): 10.3 µM
IC50 (MDA-MB-231 [5]): 13.7 µM
IC50 (MCF7): 5.5 µM

From ChEMBL document CHEMBL3217526, “Bioguided discovery and pharmacophore modeling of the mycotoxic indole diterpene alkaloids penitrems as breast cancer proliferation, migration, and invasion inhibitors” (Medchemcomm, 2013)
